For assay [1], the system named is Mus musculus. The experiment in a line: Analgesic activity in ICR mouse assessed as pain threshold variation at 20 umol/kg, ip administered as single dose measured after 30 mins by tail flick test relative to control. Type of assay: functional. On the technique in general: Hot-plate and tail-flick tests time the reaction to a heat stimulus.
Assay [2] relates to Mus musculus. The experiment in a line: Analgesic activity in ICR mouse assessed as pain threshold variation at 20 umol/kg, ip administered as single dose measured after 60 mins by tail flick test relative to control. The class given is functional.
Assay [3] has as its system Mus musculus. The experiment in a line: Analgesic activity in ICR mouse assessed as pain threshold variation at 20 umol/kg, ip administered as single dose measured after 90 mins by tail flick test relative to control. Type of assay: functional.
The subject of assay [4] is Mus musculus. The experiment in a line: Analgesic activity in ICR mouse assessed as pain threshold variation at 20 umol/kg, ip administered as single dose measured after 120 mins by tail flick test relative to control. The class given is functional.
The test system of assay [5] is Mus musculus. The experiment in a line: Analgesic activity in ICR mouse assessed as pain threshold variation at 20 umol/kg, ip administered as single dose measured after 150 mins by tail flick test relative to control. Type of assay: functional.
The subject of assay [6] is Mus musculus. The experiment in a line: Analgesic activity in ICR mouse assessed as pain threshold variation at 20 umol/kg, ip administered as single dose measured after 180 mins by tail flick test relative to control. The class given is functional.
The test system of assay [7] is Mus musculus. The experiment in a line: Analgesic activity in ICR mouse assessed as pain threshold variation at 6.25 umol/kg, po administered as single dose measured after 60 mins by tail flick test relative to control. Type of assay: functional.
For assay [8], the system named is Mus musculus. The experiment in a line: Analgesic activity in ICR mouse assessed as pain threshold variation at 6.25 umol/kg, po administered as single dose measured after 90 mins by tail flick test relative to control. The class given is functional.
Assay [9] concerns Mus musculus. The experiment in a line: Analgesic activity in ICR mouse assessed as pain threshold variation at 6.25 umol/kg, po administered as single dose measured after 120 mins by tail flick test relative to control. The class given is functional.
Assay [10] concerns Mus musculus. The experiment in a line: Analgesic activity in ICR mouse assessed as pain threshold variation at 6.25 umol/kg, po administered as single dose measured after 150 mins by tail flick test relative to control. Type of assay: functional.
Assay [11] deals with Mus musculus. The experiment in a line: Analgesic activity in ICR mouse assessed as pain threshold variation at 6.25 umol/kg, po administered as single dose measured after 180 mins by tail flick test relative to control. Type of assay: functional.
The subject of assay [12] is Mus musculus. The experiment in a line: Analgesic activity in po dosed ICR mouse assessed as pain threshold variation administered as single dose measured after 30 to 180 mins by tail flick test. Type of assay: functional, organism-based.
Assay [13] concerns Mus musculus. The experiment in a line: Analgesic activity in ICR mouse assessed as pain threshold variation at 25 umol/kg, po administered as single dose measured after 30 mins by tail flick test relative to control. Type of assay: functional.
The subject of assay [14] is Mus musculus. The experiment in a line: Analgesic activity in ICR mouse assessed as pain threshold variation at 25 umol/kg, po administered as single dose measured after 60 mins by tail flick test relative to control. Type of assay: functional.
Assay [15] has as its system Mus musculus. The experiment in a line: Analgesic activity in ICR mouse assessed as pain threshold variation at 25 umol/kg, po administered as single dose measured after 90 mins by tail flick test relative to control. Type of assay: functional.
The test system of assay [16] is Mus musculus. The experiment in a line: Analgesic activity in ICR mouse assessed as pain threshold variation at 25 umol/kg, po administered as single dose measured after 120 mins by tail flick test relative to control. Type of assay: functional.
Assay [17] concerns Mus musculus. The experiment in a line: Analgesic activity in ICR mouse assessed as pain threshold variation at 25 umol/kg, po administered as single dose measured after 150 mins by tail flick test relative to control. Type of assay: functional.
Assay [18] deals with Mus musculus. The experiment in a line: Analgesic activity in ICR mouse assessed as pain threshold variation at 25 umol/kg, po administered as single dose measured after 180 mins by tail flick test relative to control. The class given is functional.
The subject of assay [19] is Mus musculus. The experiment in a line: Analgesic activity in ICR mouse assessed as pain threshold variation at 12.5 umol/kg, po administered as single dose measured after 30 mins by tail flick test relative to control. Type of assay: functional.
The test system of assay [20] is Mus musculus. The experiment in a line: Analgesic activity in ICR mouse assessed as pain threshold variation at 12.5 umol/kg, po administered as single dose measured after 60 mins by tail flick test relative to control. Type of assay: functional.
The subject of assay [21] is Mus musculus. The experiment in a line: Analgesic activity in ICR mouse assessed as pain threshold variation at 12.5 umol/kg, po administered as single dose measured after 90 mins by tail flick test relative to control. Type of assay: functional.
Assay [22] deals with Mus musculus. The experiment in a line: Analgesic activity in ICR mouse assessed as pain threshold variation at 12.5 umol/kg, po administered as single dose measured after 120 mins by tail flick test relative to control. The class given is functional.
Assay [23] concerns Mus musculus. The experiment in a line: Analgesic activity in ICR mouse assessed as pain threshold variation at 12.5 umol/kg, po administered as single dose measured after 150 mins by tail flick test relative to control. The class given is functional.
Assay [24] has as its system Mus musculus. The experiment in a line: Analgesic activity in ICR mouse assessed as pain threshold variation at 12.5 umol/kg, po administered as single dose measured after 180 mins by tail flick test relative to control. The class given is functional.
Assay [25] relates to Mus musculus. The experiment in a line: Analgesic activity in ICR mouse assessed as pain threshold variation at 6.25 umol/kg, po administered as single dose measured after 30 mins by tail flick test relative to control. The class given is functional.

This passage reports Activity results from ChEMBL document CHEMBL1152546, “N-[2-chloro-9H-purin-6-yl]-N-cyclopropylglycylamino acids and derivatives: synthesis, evaluation as a class of novel analgesics, and 3D QSAR analysis” (2009).

For the compound `CN1CC[C@]23c4c5ccc(O)c4O[C@H]2[C@@H](O)C=C[C@H]3[C@H]1C5` [MORPHINE], the Activity is on record as 147% in assay [1]; 177.6% in [2]; 122.7% in [3]; 64.9% in assay [4]; 36.7% in assay [5]; 32.9% in assay [6].
Regarding `CC(C)C[C@H](NC(=O)CN(c1nc(Cl)nc2[nH]cnc12)C1CC1)C(=O)O`, the Activity in [7] was 10.66%; in [8], 16.17%; in assay [9] it was 9.44%; in [10], 5.56%; in [11], 2.8%; in [12], “Dose-dependent effect”. In addition, the Activity in assay [13] is 23.4%; in assay [14] it was 36.37%; in assay [15] it was 26.97%; in [16] it was 18.74%; in [17], 9.13%; in [18], 3.63%. In addition, the Activity was found to be 15.99% in assay [19]; 17.3% in assay [20]; 20.93% in assay [21]; 13.32% in assay [22]; 7.77% in assay [23]; 5.5% in [24]. Further, the Activity in assay [25] is 8.01%.
Turning to `NCCCC[C@H](NC(=O)CN(c1nc(Cl)nc2[nH]cnc12)C1CC1)C(=O)OCc1ccccc1`, the Activity was 14.83% in assay [7]; 11.3% in [8]; 9.01% in [9]; 4.87% in assay [10]; 3.95% in assay [11]; “Dose-dependent effect” in assay [12]. The Activity in [13] is listed as 26.13%; in [14], 41.16%; in assay [15] it was 35.27%; in assay [16] it was 16.79%; in assay [17], 9.88%; in [18] it was 2.24%. Also, the Activity in [19] is 18.5%; in assay [20], 29.98%; in assay [21], 25.42%; in [22] it was 11.35%; in [23], 9.91%; in [24] it was 3.72%. For the same compound, the Activity in assay [25] was 9.19%.
In the case of `N=C(N)NCCC[C@H](NC(=O)CN(c1nc(Cl)nc2[nH]cnc12)C1CC1)C(=O)O`, the Activity in [7] was 17.53%; in assay [8], 12.08%; in assay [9], 9.52%; in assay [10] it was 5.09%; in assay [11] it was 2.15%; in assay [12] it was “Dose-dependent effect”. In addition, the Activity in assay [13] worked out at 45.41%; in assay [14], 50.97%; in assay [15], 27.59%; in [16], 17.03%; in assay [17], 7.19%; in [18], 5.19%. For the same compound, the Activity was 22.24% in [19]; 39.76% in assay [20]; 18.43% in assay [21]; 10.28% in assay [22]; 6.93% in assay [23]; 5.24% in assay [24]. In assay [25], the Activity is 8.9%.
